The record followed here is patent publication US20030180339A1, “Topical treatment of skin” (priority 2002, published 2003).

The test system of the assay is sebum. Description: Oil reduction potential of moisturising gels, blinded randomised study in India, Sebumeter SM810 (Example 34). It counts as in vivo, human. As to the method:
A study was conducted on 37 normal volunteers in India to determine the oil reduction potential of moisturising gels containing sebum reduction agents.
This study was a blinded, randomised study comparing 2 test gels (containing Cedar wood and Poplar bud) with standard preparation (containing Elubiol).
Women volunteers between the age of 17 and 19 years were screened by measuring sebumeter readings of the left forehead using a Sebumeter SM810. Those volunteers had subumeter reading of […] or above.
These volunteers were instructed to avoid any other face cream, face wash or any other cosmetics during the 8 weeks of the study. After recruitment, volunteers were instructed to use the face wash for the first 2 weeks. This period was considered as the conditioning period.
A baseline sebumeter reading was taken at the end of the conditioning period on 4 sites i.e. left forehead, left cheek, right forehead, and right cheek. Tubes containing the test medicines (which were coded and randomly allocated to each site) were dispensed to the volunteers. Each volunteer was given two test gels, one for left side of the face and the other for right side of the face. […]
The volunteer was requested to make a note of application of face wash and face cream daily on the given diary sheets. Sebumeter readings were taken 3 weeks and 6 weeks later.

`CCOC(=O)N1CCN(c2ccc(OC[C@H]3CO[C@](Cn4ccnc4)(c4ccc(Cl)cc4Cl)O3)cc2)CC1` [Elubiol, dichlorophenyl-imidazoltioxolan]: the “effect on sebumeter readings, comparison between treatments” value (at 6 weeks) is “improved”. Besides, the “fall in the sebum reading at 6 weeks as compared to 3 weeks” value (gel twice a day) is listed as “significantly greater fall”.
